Data as given in the NIST ThermoML archive (doi:10.1021/je5004719).
Numbers after ± are expanded uncertainties.

Assay: xn = mol fraction of the nth substance listed
Settings: 101 kPa, Liquid; for speed of sound: Sing-around technique in a fixed-path interferometer; for mass density: Vibrating tube method

C1CCOCC1 [tetrahydropyran] + Cc1ccccc1
Settings	mass density, 298.15 K [kg/m3]	mass density, 303.15 K [kg/m3]	speed of sound, 298.15 K [m/s]	speed of sound, 303.15 K [m/s]
x1 = 0.0834	863.93 ± 1	859.19 ± 1	1303.2 ± 0.8	1281.1 ± 0.8
x1 = 0.1245	864.77 ± 1	859.99 ± 1	1302.3 ± 0.8	1280 ± 0.8
x1 = 0.1765	865.79 ± 1	860.99 ± 1	1301.2 ± 0.8	1278.7 ± 0.8
x1 = 0.2387	866.99 ± 1	862.15 ± 1	1299.7 ± 0.8	1277.1 ± 0.8
x1 = 0.3017	868.16 ± 1	863.3 ± 1	1298.1 ± 0.8	1275.3 ± 0.8
x1 = 0.3541	869.11 ± 1	864.23 ± 1	1296.6 ± 0.8	1273.8 ± 0.8
x1 = 0.4098	870.1 ± 1	865.2 ± 1	1295 ± 0.8	1272.2 ± 0.8
x1 = 0.4467	870.74 ± 1	865.83 ± 1	1293.9 ± 0.8	1271 ± 0.8
x1 = 0.4915	871.51 ± 1	866.59 ± 1	1292.5 ± 0.8	1269.5 ± 0.8
x1 = 0.5487	872.47 ± 1	867.53 ± 1	1290.6 ± 0.8	1267.5 ± 0.8
x1 = 0.6008	873.33 ± 1	868.36 ± 1	1288.8 ± 0.8	1265.6 ± 0.8
x1 = 0.6472	874.08 ± 1	869.09 ± 1	1287.1 ± 0.8	1263.7 ± 0.8
x1 = 0.6954	874.84 ± 1	869.83 ± 1	1285.2 ± 0.8	1261.8 ± 0.8
x1 = 0.7321	875.41 ± 1	870.38 ± 1	1283.7 ± 0.8	1260.2 ± 0.8
x1 = 0.7832	876.18 ± 1	871.13 ± 1	1281.5 ± 0.8	1257.9 ± 0.8
x1 = 0.8241	876.78 ± 1	871.71 ± 1	1279.6 ± 0.8	1255.9 ± 0.8
x1 = 0.8937	877.76 ± 1	872.65 ± 1	1276.1 ± 0.8	1252.5 ± 0.8
x1 = 0.9205	878.12 ± 1	873 ± 1	1274.6 ± 0.8	1251.1 ± 0.8

C1CCOCC1 [tetrahydropyran] + c1ccccc1
Settings	mass density, 298.15 K [kg/m3]	mass density, 303.15 K [kg/m3]	speed of sound, 298.15 K [m/s]	speed of sound, 303.15 K [m/s]
x1 = 0.0789	874.6 ± 1	869.25 ± 1	1298.9 ± 0.8	1274 ± 0.8
x1 = 0.1324	875.21 ± 1	869.87 ± 1	1298.2 ± 0.8	1272.5 ± 0.8
x1 = 0.1784	875.68 ± 1	870.35 ± 1	1297.5 ± 0.8	1271.2 ± 0.8
x1 = 0.2239	876.1 ± 1	870.78 ± 1	1296.6 ± 0.8	1269.8 ± 0.8
x1 = 0.2876	876.63 ± 1	871.32 ± 1	1295.2 ± 0.8	1267.9 ± 0.8
x1 = 0.3276	876.92 ± 1	871.63 ± 1	1294.2 ± 0.8	1266.7 ± 0.8
x1 = 0.3769	877.26 ± 1	871.97 ± 1	1292.9 ± 0.8	1265.2 ± 0.8
x1 = 0.4285	877.58 ± 1	872.3 ± 1	1291.4 ± 0.8	1263.6 ± 0.8
x1 = 0.4794	877.87 ± 1	872.59 ± 1	1289.8 ± 0.8	1262 ± 0.8
x1 = 0.5598	878.27 ± 1	872.99 ± 1	1287.2 ± 0.8	1259.6 ± 0.8
x1 = 0.6024	878.46 ± 1	873.17 ± 1	1285.8 ± 0.8	1258.3 ± 0.8
x1 = 0.6534	878.66 ± 1	873.37 ± 1	1284 ± 0.8	1256.9 ± 0.8
x1 = 0.7006	878.82 ± 1	873.53 ± 1	1282.3 ± 0.8	1255.5 ± 0.8
x1 = 0.7432	878.95 ± 1	873.65 ± 1	1280.7 ± 0.8	1254.2 ± 0.8
x1 = 0.7943	879.07 ± 1	873.77 ± 1	1278.8 ± 0.8	1252.8 ± 0.8
x1 = 0.8213	879.12 ± 1	873.83 ± 1	1277.7 ± 0.8	1252 ± 0.8
x1 = 0.8763	879.18 ± 1	873.92 ± 1	1275.4 ± 0.8	1250.4 ± 0.8
x1 = 0.9148	879.2 ± 1	873.96 ± 1	1273.7 ± 0.8	1249.3 ± 0.8
